Patent publication US20070128217A1 (priority 2003, published 2007)

Experiments:
[1] = test system: rabbit serum obtained by immunizing a rabbit with the SARS-CoV strain Frankfurt 1; assay type: binding; set-up: Binding of a rabbit serum to linear peptides / Binding of a rabbit serum to looped peptides / Rabbit serum linear peptides / Rabbit serum looped peptides / Binding of a rabbit serum to linear peptides of protein N of SARS-CoV Urbani (Rabbit serum linear peptides) / Binding of a rabbit serum to looped/cyclic peptides of protein N of SARS-CoV Urbani (Rabbit serum looped peptides): unit not given here
[2] = test system: control sera (pooled serum of ten healthy LUMC hospital workers; commercial negative donor pooled serum from the Dutch bloodbank); assay type: binding, human; set-up: Binding of Control serum LUMC to linear peptides / Binding of Control serum Blood-bank to linear peptides / Binding of Control serum LUMC to looped peptides / Binding of Control Serum Blood-Bank to Looped peptides / Binding of Control serum LUMC to linear peptides of the protein M of SARS-CoV Urbani / Binding of Control serum Blood-bank to linear peptides of the protein M of SARS-CoV Urbani / Binding of Control serum LUMC to looped peptides of the protein M of SARS-CoV Urbani / Binding of Control Serum Blood-Bank to Looped peptides of the protein M of SARS-CoV Urbani: unit not given here
[3] = test system: antibodies in sera from SARS patients (sera 1a, 1b, 2, 6, 37, 62, London, SARS-yellow, SARS-green); assay type: binding, human; set-up: Binding of serum 6 to linear peptides of protein X1 of SARS-CoV Urbani / Binding of serum 37 to linear peptides of protein X1 of SARS-CoV Urbani / Binding of serum 6 to looped/cyclic peptide (PEPSCAN-ELISA) / Binding of serum 37 to looped/cyclic peptide (PEPSCAN-ELISA) / Binding of serum 37 to looped/cyclic peptides of protein X1 of SARS-CoV Urbani / Binding of serum 6 to linear peptides of protein X2 / Binding of serum 37 to linear peptides of protein X2 / Binding of serum 37 to looped/cyclic peptides of protein X2 of SARS-CoV Urbani / Binding of serum 6 to linear peptides of protein M of SARS-CoV Urbani / Binding of serum 37 to linear peptides of protein M of SARS-CoV Urbani / Binding of serum 6 to looped/cyclic peptides of protein M of SARS-CoV Urbani / Binding of serum 37 to looped/cyclic peptides of protein M of SARS-CoV Urbani / Binding of serum 6 to linear peptides of protein X3 of SARS-CoV Urbani / Binding of serum 37 to linear peptides of protein X3 of SARS-CoV Urbani / Binding of serum 37 to looped/cyclic peptides of protein X3 of SARS-CoV Urbani / Binding of serum 6 to linear peptides of protein X4 of SARS-CoV Urbani / Binding of serum 37 to linear peptides of protein X4 of SARS-CoV Urbani / Binding of serum 37 to looped/cyclic peptides of protein X4 of SARS-CoV Urbani / Binding of serum 6 to linear peptides of protein X5 of SARS-CoV Urbani / Binding of serum 37 to linear peptides of protein X5 of SARS-CoV Urbani / Binding of serum 37 to looped/cyclic peptides of protein X5 of SARS-CoV Urbani / Binding of serum 6 to linear peptides of protein N of SARS-CoV Urbani / Binding of serum 37 to linear peptides of protein N of SARS-CoV Urbani / Binding of serum 6 to linear peptide (PEPSCAN-ELISA) / Binding of serum 1a to looped/cyclic peptides of protein N of SARS-CoV Urbani / Binding of serum 1b to looped/cyclic peptides of protein N of SARS-CoV Urbani / Binding of serum 2 to looped/cyclic peptides of protein N of SARS-CoV Urbani / Binding of serum 6 to looped/cyclic peptides of protein N of SARS-CoV Urbani / Binding of serum 37 to looped/cyclic peptides of protein N of SARS-CoV Urbani / Binding of serum 62 to looped/cyclic peptides of protein N of SARS-CoV Urbani / Binding of serum London to looped/cyclic peptides of protein N of SARS-CoV Urbani / Binding of serum SARS-green to looped/cyclic peptides of protein N of SARS-CoV Urbani: unit not given here

Sequence	Rabbit serum linear peptides [1]	Rabbit serum looped peptides [1]	Binding of Control Serum Blood-Bank to Looped peptides [2]	Binding of Control serum Blood-bank to linear peptides [2]	Binding of Control serum LUMC to linear peptides [2]	Binding of Control serum LUMC to looped peptides [2]	Binding of a rabbit serum to linear peptides [1]	Binding of a rabbit serum to looped peptides [1]	also measured
SPKLFIRQEEVQQEL	0.5	0.0	0.6	0.5	0.5	0.8	–	–	Binding of serum 1a to linear peptides of protein X4 of SARS-CoV Urbani [3]: 0.7; Binding of serum 1a to looped/cyclic peptides of protein X4 of SARS-CoV Urbani [3]: 0.8; Binding of serum 1b to linear peptides of protein X4 of SARS-CoV Urbani [3]: 0.5; Binding of serum 1b to looped/cyclic peptides of protein X4 of SARS-CoV Urbani [3]: 0.6; Binding of serum 2 to linear peptides of protein X4 of SARS-CoV Urbani [3]: 0.3; Binding of serum 2 to looped/cyclic peptides of protein X4 of SARS-CoV Urbani [3]: 0.7; Binding of serum 6 to linear peptides of protein X4 of SARS-CoV Urbani [3]: 0.4; Binding of serum 6 to looped/cyclic peptides of protein X4 of SARS-CoV Urbani [3]: 0.6; Binding of serum 37 to linear peptides of protein X4 of SARS-CoV Urbani [3]: 0.7; Binding of serum 37 to looped/cyclic peptides of protein X4 of SARS-CoV Urbani [3]: 0.8; Binding of serum 62 to linear peptides of protein X4 of SARS-CoV Urbani [3]: 0.7; Binding of serum 62 to looped/cyclic peptides of protein X4 of SARS-CoV Urbani [3]: 0.6; Binding of serum London to linear peptides of protein X4 of SARS-CoV Urbani [3]: 0.7; Binding of serum London to looped/cyclic peptides of protein X4 of SARS-CoV Urbani [3]: 0.4; Binding of serum SARS-green to linear peptides of protein X4 of SARS-CoV Urbani [3]: 0.8; Binding of serum SARS-green to looped/cyclic peptides of protein X4 of SARS-CoV Urbani [3]: 0.2; Binding of serum SARS-yellow to linear peptides of protein X4 of SARS-CoV Urbani [3]: 0.5; Binding of serum SARS-yellow to looped/cyclic peptides of protein X4 of SARS-CoV Urbani [3]: 0.5
GALIARCWYLHEGHQ	0.6	0.0	0.3	0.6	0.4	0.2	–	–	Binding of serum 1a to linear peptides of protein X5 of SARS-CoV Urbani [3]: 0.7; Binding of serum 1a to looped/cyclic peptides of protein X5 of SARS-CoV Urbani [3]: 0.4; Binding of serum 1b to linear peptides of protein X5 of SARS-CoV Urbani [3]: 0.6; Binding of serum 1b to looped/cyclic peptides of protein X5 of SARS-CoV Urbani [3]: 0.4; Binding of serum 2 to linear peptides of protein X5 of SARS-CoV Urbani [3]: 0.6; Binding of serum 2 to looped/cyclic peptides of protein X5 of SARS-CoV Urbani [3]: 0.7; Binding of serum 6 to linear peptides of protein X5 of SARS-CoV Urbani [3]: 0.7; Binding of serum 6 to looped/cyclic peptides of protein X5 of SARS-CoV Urbani [3]: 0.3; Binding of serum 37 to linear peptides of protein X5 of SARS-CoV Urbani [3]: 0.7; Binding of serum 37 to looped/cyclic peptides of protein X5 of SARS-CoV Urbani [3]: 0.4; Binding of serum 62 to linear peptides of protein X5 of SARS-CoV Urbani [3]: 0.7; Binding of serum 62 to looped/cyclic peptides of protein X5 of SARS-CoV Urbani [3]: 0.3; Binding of serum London to linear peptides of protein X5 of SARS-CoV Urbani [3]: 0.6; Binding of serum London to looped/cyclic peptides of protein X5 of SARS-CoV Urbani [3]: 0.1; Binding of serum SARS-green to linear peptides of protein X5 of SARS-CoV Urbani [3]: 0.6; Binding of serum SARS-green to looped/cyclic peptides of protein X5 of SARS-CoV Urbani [3]: 0.8; Binding of serum SARS-yellow to linear peptides of protein X5 of SARS-CoV Urbani [3]: 0.1; Binding of serum SARS-yellow to looped/cyclic peptides of protein X5 of SARS-CoV Urbani [3]: 0.3
WHTMVQTCTPNVTIN	0.5	0.0	0.5	1.0	0.5	0.4	–	–	–
KLVKDPPNVQIHTID	–	–	0.4	0.4	0.5	0.4	0.1	0.4	–
AGHPLGRCDIKDLPK	0.1	0.1	–	–	–	–	–	–	Binding of Control Serum Blood-Bank to Looped peptides of the protein M of SARS-CoV Urbani [2]: 0.9; Binding of Control serum Blood-bank to linear peptides of the protein M of SARS-CoV Urbani [2]: 1.1; Binding of Control serum LUMC to linear peptides of the protein M of SARS-CoV Urbani [2]: 0.8; Binding of Control serum LUMC to looped peptides of the protein M of SARS-CoV Urbani [2]: 0.7
EDYQIGGYSEDRHSG	–	–	0.4	0.4	0.4	0.5	0.1	0.6	–
DYQIGGYSEDRHSGV	–	–	0.5	0.6	0.5	0.7	0.1	0.5	–
KTTKLVVILRIGTQV	–	–	0.7	0.4	0.5	0.7	–	–	Recognition of the peptide by the rabbit serum [1]: recognized
QVLKTMSLYMAISPK	–	–	0.4	0.9	0.7	0.4	0.1	0.5	–
VCWHTHNYDYCIPYN	–	–	0.7	0.7	0.8	0.6	0.1	0.6	–
TKKNYSELDDEEPME	0.2	0.1	–	–	–	–	–	–	Binding of Control Serum Blood-Bank to Looped peptides of the protein X3 of SARS-CoV Urbani [2]: 0.4; Binding of Control serum Blood-bank to linear peptides of the protein X3 of SARS-CoV Urbani [2]: 0.8; Binding of Control serum LUMC to linear peptides of the protein X3 of SARS-CoV Urbani [2]: 0.4; Binding of Control serum LUMC to looped peptides of the protein X3 of SARS-CoV Urbani [2]: 0.9
SIVRQLFKPLTKKNY	0.3	0.4	–	–	–	–	–	–	Binding of Control Serum Blood-Bank to Looped peptides of the protein X3 of SARS-CoV Urbani [2]: 0.8; Binding of Control serum Blood-bank to linear peptides of the protein X3 of SARS-CoV Urbani [2]: 0.8; Binding of Control serum LUMC to linear peptides of the protein X3 of SARS-CoV Urbani [2]: 0.7; Binding of Control serum LUMC to looped peptides of the protein X3 of SARS-CoV Urbani [2]: 0.8
GVANPAMDPIYDEPT	–	–	0.5	0.4	0.3	0.6	0.1	0.6	–
YKLGASQRVGTDSGF	0.4	0.2	–	–	–	–	–	–	Binding of Control Serum Blood-Bank to Looped peptides of the protein M of SARS-CoV Urbani [2]: 0.7; Binding of Control serum Blood-bank to linear peptides of the protein M of SARS-CoV Urbani [2]: 0.7; Binding of Control serum LUMC to linear peptides of the protein M of SARS-CoV Urbani [2]: 0.4; Binding of Control serum LUMC to looped peptides of the protein M of SARS-CoV Urbani [2]: 0.9
VYSRVKNLNSSEGVP	–	–	1.0	0.9	0.6	0.7	0.7	0.0	–
